Source: patent WO2017093157A1, “Piperidine, pyrrolidine and 2-oxo-1,3-oxazinane derivatives as inhibitors of bacterial efflux-pumps for the treatment of microbial infections” (Basilea Pharmaceutica AG, priority 2015, dated 2017)

Experiments:
P. aeruginosa PAOl = assay: Antibacterial activity in combination with linezolid, P. aeruginosa; type: cell-based; conditions: Pseudomonas aeruginosa, linezolid 128 μg/mL, compound 50 μM, OD625 23 h minus 1 h
E. coli ATCC25922 = assay: Antibacterial activity in combination with linezolid, E. coli; type: cell-based; conditions: Escherichia coli, linezolid 128 μg/mL, compound 50 μM, OD625 23 h minus 1 h

| Compound | residual growth (% of uninhibited control) at 50 µM (P. aeruginosa PAOl) [%] | residual growth (% of uninhibited control) at 50 µM (E. coli ATCC25922) [%] |
| --- | --- | --- |
| C[N+]1(Cc2cc(OCCc3c[nH]cn3)cc(OCc3ccc(Cl)cc3Br)c2)CCC(CN)C1 (stereo not drawn) [Example 23, [l-[[3-[(2-bromo-4-chloro-phenyl)methoxy]-5-[2-(7H-imidazol-4-yl)ethoxy]phenyl]methyl]-l-methyl-pyrrolidin-l-ium-3-yl]methanamine] | ≤ 50 |  |
| NCC1COC(=O)N(Cc2cc(C=O)cc(OCc3ccc(Cl)cc3Br)c2)C1 (centres unmarked) [Example 7, 3-[[5-(aminomethyl)-2-oxo-l,3-oxazinan-3-yl]methyl]-5-[(2-bromo-4-chloro-phenyl)methoxy]benzaldehyde] |  | ≤ 50 |
